# Assay results: ChEMBL document CHEMBL1201862, “PubChem BioAssay data set” (2004)
# Calls of active or inactive are those of the source.
# Columns and labels:
# [1] = biological target: T1, Rac GTPase-activating protein 1 (Homo sapiens, UniProt Q9H0H5); experiment: MgcRacGAP GTPase-activating activity inhibitors, confirmation, biochemical, ADP Hunter fluorescence, primary and confirmatory (AID 624330); type: functional
# T1 sequence (Q9H0H5 whole entry): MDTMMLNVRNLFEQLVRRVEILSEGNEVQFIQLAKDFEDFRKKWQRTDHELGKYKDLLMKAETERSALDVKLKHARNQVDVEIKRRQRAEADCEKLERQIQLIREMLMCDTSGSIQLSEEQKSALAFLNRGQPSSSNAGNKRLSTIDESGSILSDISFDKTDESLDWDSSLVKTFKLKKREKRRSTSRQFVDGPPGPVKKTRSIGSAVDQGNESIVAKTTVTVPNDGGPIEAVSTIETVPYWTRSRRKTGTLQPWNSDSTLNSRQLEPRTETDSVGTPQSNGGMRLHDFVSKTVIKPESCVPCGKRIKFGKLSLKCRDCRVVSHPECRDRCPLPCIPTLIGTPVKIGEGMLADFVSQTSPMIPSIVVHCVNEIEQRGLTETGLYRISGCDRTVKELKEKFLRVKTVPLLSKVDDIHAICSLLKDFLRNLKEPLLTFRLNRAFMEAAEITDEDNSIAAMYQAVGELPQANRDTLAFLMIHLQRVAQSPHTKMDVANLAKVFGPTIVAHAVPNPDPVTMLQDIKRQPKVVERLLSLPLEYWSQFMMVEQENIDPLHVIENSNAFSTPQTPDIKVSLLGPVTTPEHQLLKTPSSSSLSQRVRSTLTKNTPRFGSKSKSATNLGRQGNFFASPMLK
# [2] = NIH-3T3 fibroblast cytotoxicity, dose response, cytotoxicity control, cell-based, fluorescence, Alamar Blue, secondary assay (AID 2327); type: functional;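 also: NIH-3T3 mouse fibroblasts cultured with fluconazole at 8 µg/mL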
# [3] = biological target: FAD-linked sulfhydryl oxidase ALR (Homo sapiens, UniProt P55789); experiment: inhibitors of human ALR sulfhydryl oxidase, dose response, biochemical, H2O2 detection, luminescence, cherry-pick (AID 493248)
# Chain of FAD-linked sulfhydryl oxidase ALR (P55789 whole entry): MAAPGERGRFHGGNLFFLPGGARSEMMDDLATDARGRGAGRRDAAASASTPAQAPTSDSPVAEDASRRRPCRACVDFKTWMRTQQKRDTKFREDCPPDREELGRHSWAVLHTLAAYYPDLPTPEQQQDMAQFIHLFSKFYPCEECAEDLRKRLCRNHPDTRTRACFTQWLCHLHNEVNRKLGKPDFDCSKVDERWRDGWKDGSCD
# [4] = biological target: T2, Heat shock factor protein 1 (Mus musculus, UniProt P38532); experiment: HSF1 potentiators in luciferase reporter cells, confirmation, cell-based, NIH3T3, luminescence, dose retest (AID 435004); type: functional;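 also: stress induced by proteasome inhibitor MG132 added 30 min after compound; luciferase reporter driven by HSF1 response element in NIH3T3 cells; actives raise luminescence as potentiators of the MG132 stress response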
# T2 sequence (P38532 whole entry): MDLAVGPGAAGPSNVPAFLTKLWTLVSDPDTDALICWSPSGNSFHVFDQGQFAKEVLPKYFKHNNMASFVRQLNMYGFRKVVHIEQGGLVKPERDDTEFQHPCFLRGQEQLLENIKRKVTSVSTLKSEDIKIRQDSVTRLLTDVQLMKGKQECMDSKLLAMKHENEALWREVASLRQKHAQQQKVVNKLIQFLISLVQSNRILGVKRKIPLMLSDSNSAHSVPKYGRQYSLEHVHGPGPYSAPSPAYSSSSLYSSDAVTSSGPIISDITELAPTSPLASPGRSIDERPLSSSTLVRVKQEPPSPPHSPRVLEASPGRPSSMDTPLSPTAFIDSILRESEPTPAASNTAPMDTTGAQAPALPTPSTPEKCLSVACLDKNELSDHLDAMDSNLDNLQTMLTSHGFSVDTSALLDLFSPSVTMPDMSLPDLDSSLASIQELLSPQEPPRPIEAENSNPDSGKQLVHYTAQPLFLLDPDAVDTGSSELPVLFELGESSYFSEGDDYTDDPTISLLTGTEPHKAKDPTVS
# [5] = biological target: T3, Corticotropin-releasing factor receptor 2/Corticotropin-releasing factor-binding protein (Homo sapiens, UniProt P24387+Q13324); experiment: activators of CRF receptor 2 with binding protein – uHTS hits, confirmation (AID 602473); type: functional; conditions: read-out: EC50_Mean
# T3 sequence (Q13324 whole entry): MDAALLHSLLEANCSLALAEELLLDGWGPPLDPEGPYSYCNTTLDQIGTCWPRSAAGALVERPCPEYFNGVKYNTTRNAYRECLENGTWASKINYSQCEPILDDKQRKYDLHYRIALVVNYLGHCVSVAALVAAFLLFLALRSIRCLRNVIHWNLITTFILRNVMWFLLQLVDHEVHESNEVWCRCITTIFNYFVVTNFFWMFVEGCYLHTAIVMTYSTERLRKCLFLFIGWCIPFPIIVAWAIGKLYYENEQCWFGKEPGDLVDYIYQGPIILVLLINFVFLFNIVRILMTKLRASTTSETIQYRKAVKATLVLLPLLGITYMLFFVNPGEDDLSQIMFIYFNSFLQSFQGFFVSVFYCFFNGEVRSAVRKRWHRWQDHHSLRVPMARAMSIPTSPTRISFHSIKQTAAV
# T3 sequence (P24387 whole entry): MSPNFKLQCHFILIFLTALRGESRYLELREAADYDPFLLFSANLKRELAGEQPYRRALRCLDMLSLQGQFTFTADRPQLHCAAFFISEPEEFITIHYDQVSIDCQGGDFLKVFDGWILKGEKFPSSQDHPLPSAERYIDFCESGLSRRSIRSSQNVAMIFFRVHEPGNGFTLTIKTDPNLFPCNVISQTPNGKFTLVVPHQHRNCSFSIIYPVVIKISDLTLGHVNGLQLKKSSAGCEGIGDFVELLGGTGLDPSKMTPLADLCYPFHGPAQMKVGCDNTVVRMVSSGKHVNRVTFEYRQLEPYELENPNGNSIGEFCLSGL
# [6] = biological target: T3, Corticotropin-releasing factor receptor 2/Corticotropin-releasing factor-binding protein; experiment: Dose Response confirmation of uHTS hits for small molecule antagonists of the CRF-binding protein and CRF-R2 receptor complex.; type: functional; conditions: read-out: IC50_Mean
# Vero = experiment: cells; type: functional; conditions: Chlorocebus sabaeus
# [7] = THP-1 cell cytotoxicity, dose response, cytotoxicity control for non-replicating M. tuberculosis project (AID 489025); type: functional
# cells = type: functional
# [8] = inhibitors of intracellular T. cruzi replication, confirmation, NIH3T3 host cells, beta-gal luminescence (AID 2044); type: functional, cell-based;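 also: intracellular parasites grown in NIH/3T3 mouse fibroblasts as host cells; luminescent beta-galactosidase reporter signal from transgenic T. cruzi replicating inside host cells; inhibitors lower the luminescence signal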
# [9] = cytotoxicity toward NIH3T3 fibroblasts, dose response, counter-screen, cell-based, ATP luminescence, mouse fibroblasts (AID 2010); type: functional;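 also: cells exposed to compound for about 90 hours before reading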
# H4 = experiment: Luminescence Cell-Based Dose Response HTS to Identify Activators of 5'UTR Stem-Loop Driven Prion Protein mRNA Translation in H4 Neuroglioblastoma Cells. [Related pubchem assays: 1829 (Project Summary), 1814 (Primary HTS)]; type: functional; conditions: Homo sapiens
# [10] = Luminescence Cell-Based Dose Response HTS to Identify Activators of Luciferase Translation or Activity in H4 […] Cells. [Related pubchem assays: 1829 (Project Summary), 1814 (Primary HTS)]; type: functional
# [11] = control 3'UTR Renilla luciferase suppression, dose response, counter-screen for Shn3 inhibitor project, cell-based, Clone20-Shn3RL, cherry-picked (AID 624133); type: functional
# [12] = Shn3 3'UTR reporter inhibitors, dose response, cell-based, Clone20 osteoblasts, firefly luciferase, cherry-picked (AID 624132); type: functional;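 also: firefly luciferase luminescence from reporter carrying the Shn3 3'UTR in osteoblasts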
# INS1 = experiment: beta cell apoptosis inhibitors, cytokine rescue, dose response, luminescence, retest (AID 449756); type: functional, cell-based; conditions: Rattus norvegicus;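 also: cell death triggered by IL-1 beta plus TNF-alpha plus IFN-gamma mixture; protective hits raise ATP signal compared with cytokine alone wells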
# [13] = HepG2 cell cytotoxicity, dose response, cytotoxicity control for Shn3 inhibitor project, CellTiter-Glo, cherry-picked (AID 624134); type: functional, cell-based
# Cytochrome P450 2D6 = Cytochrome P450 2D6 (Homo sapiens, UniProt P10635);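 also: CYP2D6 member of a cytochrome P450 panel assay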
# Chain of Cytochrome P450 2D6 (P10635 whole entry): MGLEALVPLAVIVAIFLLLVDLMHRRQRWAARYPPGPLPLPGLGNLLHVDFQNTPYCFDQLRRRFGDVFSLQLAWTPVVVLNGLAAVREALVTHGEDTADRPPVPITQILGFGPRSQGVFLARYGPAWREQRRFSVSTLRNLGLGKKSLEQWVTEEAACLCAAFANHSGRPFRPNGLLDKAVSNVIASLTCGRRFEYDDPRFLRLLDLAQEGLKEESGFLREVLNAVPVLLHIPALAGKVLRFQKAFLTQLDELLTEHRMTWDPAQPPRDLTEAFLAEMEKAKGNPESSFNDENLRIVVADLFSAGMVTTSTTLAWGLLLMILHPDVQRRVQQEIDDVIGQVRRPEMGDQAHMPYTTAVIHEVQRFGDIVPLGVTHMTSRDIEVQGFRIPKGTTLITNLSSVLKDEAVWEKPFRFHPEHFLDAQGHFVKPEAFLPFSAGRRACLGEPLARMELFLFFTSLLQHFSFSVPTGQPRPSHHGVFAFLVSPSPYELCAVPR
# Streptokinase A = biological target: T4, Streptokinase A (Streptococcus pyogenes serotype M1, UniProt P10520); experiment: S. pyogenes streptokinase expression inhibitors, potency, dose response, plasminogen activation absorbance, OD405 (AID 1914); type: functional, Streptococcus pyogenes M1 GAS;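 also: secreted streptokinase activity via plasminogen activation per viability signal from cell pellet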
# T4 sequence (P10520 whole entry): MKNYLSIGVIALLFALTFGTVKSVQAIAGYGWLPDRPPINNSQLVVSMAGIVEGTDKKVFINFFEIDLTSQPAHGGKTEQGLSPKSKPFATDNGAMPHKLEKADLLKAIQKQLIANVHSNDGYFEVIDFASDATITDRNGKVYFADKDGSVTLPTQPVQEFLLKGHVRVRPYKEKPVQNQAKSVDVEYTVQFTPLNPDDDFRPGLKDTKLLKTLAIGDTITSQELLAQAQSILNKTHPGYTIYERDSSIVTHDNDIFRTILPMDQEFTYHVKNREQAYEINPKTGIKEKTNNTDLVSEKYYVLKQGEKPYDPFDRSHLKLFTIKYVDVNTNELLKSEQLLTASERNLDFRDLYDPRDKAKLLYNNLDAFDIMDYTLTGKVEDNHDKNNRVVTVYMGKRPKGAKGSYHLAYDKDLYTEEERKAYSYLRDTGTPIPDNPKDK
# [14] = Luminescence Cell-Based Dose Retest to Confirm Inhibitors of Cancer Stem Cells. [Related pubchem assays (depositor defined):AID2717, AID2721]; type: functional; conditions: Homo sapiens
# Streptococcus = experiment: Group A Streptococcus viability loss, dose response, counter-screen for streptokinase expression inhibitor project, luminescence, BacTiterGlo (AID 1915); type: functional, organism-based;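 also: potency for reduction of bacterial viability or growth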
# [15] = growth suppression of beta-catenin-knockout colon cells, dose response, cell-based, HCT116, human colon tumor (AID 1045); type: functional;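 also: HCT116 colon tumor cells with beta catenin knocked out; cells exposed to compound for 60 hours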
# [16] = growth suppression of PTEN-null colon cells, dose response, cell-based, HCT116 PTEN knockout (AID 1047); type: functional;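 also: HCT116 colon tumor cells with PTEN knocked out; cells exposed to compound for 60 hours before readout; potency for loss of cell viability measured by luminescence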
# [17] = biological target: T5, Ubiquitin-conjugating enzyme E2 N (Homo sapiens, UniProt P61088); type: functional;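 also: Dose-response confirmation in a TR-FRET assay detecting UBC13-driven polyubiquitin chain formation, inhibition measured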
# T5 sequence (P61088 whole entry): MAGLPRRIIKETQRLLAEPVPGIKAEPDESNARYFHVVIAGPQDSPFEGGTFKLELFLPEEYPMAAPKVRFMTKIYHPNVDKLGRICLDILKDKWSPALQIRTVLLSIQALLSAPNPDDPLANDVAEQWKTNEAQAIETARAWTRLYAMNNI
# [18] = tested on: Streptococcus sp. 'group A'; experiment: growth inhibition of control SK(-) GAS strain, dose response, counter-screen for streptokinase expression inhibitor project, luminescence, kanamycin, BacTiterGlo, confirmation (AID 1900); type: functional, organism-based
structure (smiles),measurement,setting,value
Nc1ccc(N2CCN(c3ccc(F)cc3)CC2)cc1,IC50,[1],18.2 µM (active)
same,EC50,[2],40.1 µM (active)
same,AC50,[3],0.821 µM (active)
CCOC(=O)c1sc(NC(=O)CCN2CCC(C)CC2)c(C(=O)OCC)c1C,EC50,[4],> 260 µM (inactive)
O=C(C[C@H]1C/C=C\C[C@@H](Cc2ccc(F)cc2)C(=O)O[C@H](c2ccccc2)CNC1=O)NCCO,EC50,[5],> 53 µM (inactive)
same,IC50,[6],> 47.1 µM (inactive)
Cc1cccc(N2CCN(C(=O)C3CCCN(S(=O)(=O)c4c[nH]cn4)C3)CC2C)c1 (stereo not given),AC50,[3],3.55 µM (active)
COc1cc(/C=C/C(=O)N2C(=O)c3cccc(N)c3C2=O)cc(OC)c1OC,EC50,[4],2.98 µM (active)
same,CC50,Vero,17.8 µM (active)
CC(C)c1ccc(NC2CCCN(C(=O)c3cnsn3)C2)cc1 (stereo not given),AC50,[3],4.8 µM (active)
O=C(N/N=C/c1ccncc1)c1cccc(N/N=C/c2ccncc2)c1,AC50,[3],6.02 µM (active)
O=C(CSc1nnc(-c2ccc(F)cc2)c2ccccc12)Nc1ccccc1,EC50,[4],104 µM (active)
CC1(C(=O)OCC(=O)Nc2nnc(-c3ccccc3)o2)CC1(Cl)Cl (stereo not given),CC50,[7],> 40 µM (active)
same,IC50,cells,24.9 µM (active)
O=C(CCC(=O)N1CCOc2ccccc21)NC1CCCCCC1,EC50,[5],> 53 µM (inactive)
same,IC50,[6],> 47.1 µM (inactive)
O=C(Cn1cnc([N+](=O)[O-])n1)NCCc1ccccc1,EC50,[5],> 53 µM (inactive)
same,EC50,[8],0.537 µM (active)
same,IC50,[6],> 47.1 µM (inactive)
same,EC50,[9],> 60 µM (not active)
C/N=C1/S/C(=C\c2ccc(OCC(=O)OC)c(OC)c2)C(=O)N1C,CC50,[7],> 40 µM (active)
same,IC50,cells,4.45 µM (active)
Nc1ccc(-c2nc3ccccc3[nH]2)cc1,AC50,[3],1.3 µM (active)
CC1CCC(NC(=O)Cn2ncc3ccccc32)CC1 (stereo not given),EC50,H4,> 120 µM (not active)
same,EC50,[10],> 120 µM (not active)
Cc1cccc(C(=O)Oc2ccc(/C=N/NC(=O)c3ccc(O)cc3)cc2)c1,EC50,[5],> 53 µM (inactive)
same,IC50,[6],> 47.1 µM (inactive)
Cc1ccc(C2(C)CC(C)(C)N(C(=O)CSc3nnc(C)s3)c3ccccc32)cc1 (stereo not given),EC50,[5],> 53 µM (inactive)
same,IC50,[6],> 47.1 µM (inactive)
CC1=C(C#N)C(C(F)(F)F)(C(F)(F)F)NC(c2ccco2)=N1,AC50,[11],10.1 µM (active)
same,AC50,[12],7.72 µM (active)
same,AC50,INS1,4.65 µM (active)
same,AC50,[13],> 70 µM (inactive)
Nc1ccc(Sc2cnn(-c3ccccc3)c(=O)c2Cl)cc1,AC50,Cytochrome P450 2D6,12.6 µM (inconclusive)
same,EC50,[4],> 260 µM (inactive)
CCn1c(=O)c(=O)[nH]c2cc(C(=O)NC(C)c3ccc(S(N)(=O)=O)cc3)ccc21 (stereo not given),AC50,[3],0.407 µM (active)
COc1ccc(CSc2[nH]c(C)nc2[N+](=O)[O-])cc1[N+](=O)[O-],AC50,[3],0.02 µM (active)
Cc1ccc(CN2CCSc3ccc(C(=O)N4CCN(c5ncccn5)CC4)cc32)cc1,EC50,[5],> 53 µM (inactive)
same,IC50,[6],> 47.1 µM (inactive)
CC(=O)N[C@H]1C[C@@H]1c1ccccc1,EC50,[5],> 53 µM (inactive)
same,IC50,[6],> 47.1 µM (inactive)
COc1ccccc1-c1c(NC(=O)C(C)C)n(C)c2ccccc2c1=O,EC50,[5],> 53 µM (inactive)
same,IC50,[6],> 47.1 µM (inactive)
Cc1cccc(N2CCN(C(=O)C3CCN(S(=O)(=O)c4c(C)noc4C)CC3)CC2C)c1 (stereo not given),AC50,[3],10.6 µM (active)
CC1CCN(c2nc3ccc(C(=O)NCCCN4CCCCC4C)cc3s2)CC1 (stereo not given),CC50,Vero,> 25 µM (active)
CN(C)CCNC=C(C(=O)Nc1ccc(Cl)cc1Cl)C(=O)Nc1ccc(Cl)cc1Cl,EC50,Streptokinase A,> 150 µM (not active)
same,AC50,[14],6.84 µM (active)
same,EC50,Streptococcus,6.32 µM (active)
same,EC50,[15],26.4 µM (active)
same,EC50,[16],17.2 µM (active)
same,CC50,Vero,> 25 µM (active)
same,IC50,[17],> 20 µM (inactive)
same,EC50,[18],2.71 µM (active)
CC(C)(C)c1csc(NC(=O)c2ccccc2O)n1,CC50,[7],38.7 µM (active)
CN(c1ccccc1)c1nc(N)c([N+](=O)[O-])c(N2CCCCCC2)n1,EC50,[4],27.7 µM (active)
